As a reminder, the IC50 is the concentration that gives 50% inhibition. A higher IC50 goes with weaker potency.

Where a name gives a salt, the structure may show the parent alone.

Consider 32 compounds from patent publication US20230416228A1 (Forkhead Biotherapeutics, Inc., priority 2020, published 2023).

In this assay the target is T1, human FOXO1 (constitutively active form Thr24Ala, Ser256Ala, Ser319Ala) (Homo sapiens, UniProt Q12778, S256A/S319A/T24A).
T1 construct: expressed in transfected cells; host or cells: HEK293 cells transfected with pcDNA3.1 plasmid
T1 sequence (Q12778 whole entry T24A/S256A/S319A): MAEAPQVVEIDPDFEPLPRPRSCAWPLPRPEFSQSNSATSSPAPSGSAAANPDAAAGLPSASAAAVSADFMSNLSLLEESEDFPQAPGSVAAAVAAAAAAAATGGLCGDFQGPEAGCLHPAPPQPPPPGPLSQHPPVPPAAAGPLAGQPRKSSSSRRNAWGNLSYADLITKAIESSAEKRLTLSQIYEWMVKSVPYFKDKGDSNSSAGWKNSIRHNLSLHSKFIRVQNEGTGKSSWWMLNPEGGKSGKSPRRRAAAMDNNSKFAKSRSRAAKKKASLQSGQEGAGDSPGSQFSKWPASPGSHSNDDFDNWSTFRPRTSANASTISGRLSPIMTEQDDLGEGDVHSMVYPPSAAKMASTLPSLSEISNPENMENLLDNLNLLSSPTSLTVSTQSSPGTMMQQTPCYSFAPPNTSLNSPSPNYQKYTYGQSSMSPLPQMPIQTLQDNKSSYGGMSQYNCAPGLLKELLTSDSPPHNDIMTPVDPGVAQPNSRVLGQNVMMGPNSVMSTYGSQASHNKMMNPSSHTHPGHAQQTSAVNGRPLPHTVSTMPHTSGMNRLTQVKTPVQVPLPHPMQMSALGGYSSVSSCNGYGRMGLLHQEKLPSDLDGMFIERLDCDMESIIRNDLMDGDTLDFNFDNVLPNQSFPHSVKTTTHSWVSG
Briefly: FOXO1 inhibitor activity assay: cell-based transcriptional (luciferase) reporter assay in HEK293 cells. The following applies: HEK293 cells transfected with insulin response element firefly luciferase reporter, FOXO1 and Renilla luciferase; 10-point dose response 50 μM to 2.5 nM; 24 hours. In short, it runs like this: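 IC50 and maximal inhibition were fitted by 4-parameter logistic regression on normalized firefly/Renilla luciferase ratios. The 0% reference used RFP in place of FOXO1, and the 100% reference was DMSO-only with all plasmids.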
Background: In a reporter assay the amount or activity of a reporter protein is the signal.

In turn, `C[C@H]1CN(c2ccc(C(=O)Nc3cc(-c4nc5ccccc5[nH]4)n(C)n3)cn2)CCN1` [Compound A-245, N-[5-(1H-benzimidazol-2-yl)-1-methyl-pyrazol-3-yl]-6-[(3S)-3-methylpiperazin-1-yl]pyridine-3-carboxamide] showed an IC50 of less than 100 nM.
Under `CC(O)CN1CCN(c2ccc(C(=O)Nc3cc(-c4nc5ccccc5[nH]4)n(C)n3)cc2)CC1` (centres unmarked) [A-257, N-[5-(1H-benzimidazol-2-yl)-1-methyl-pyrazol-3-yl]-4-[4-(2-hydroxypropyl)piperazin-1-yl]benzamide] stands less than 100 nM; under `Cn1nc(NC(=O)c2ccc(N3CCC(CO)CC3)nc2)cc1-c1nc2cccc(F)c2[nH]1` [Compound A-136, N-[5-(4-fluoro-1H-benzimidazol-2-yl)-1-methyl-pyrazol-3-yl]-6-[4-(hydroxymethyl)-1-piperidyl]pyridine-3-carboxamide], 100 to 300 nM; under `O=C(Nc1ccccc1)Nc1cc(-c2nc3ccccc3[nH]2)[nH]n1` [Compound A-140, 1-[5-(1H-benzimidazol-2-yl)-1H-pyrazol-3-yl]-3-phenyl-urea], greater than 1000 nM.
For `O=C(Nc1cc(-c2nc3ccccc3[nH]2)[nH]n1)c1ccc(OCCO)c(F)c1` [Compound A-130, N-[5-(1H-benzimidazol-2-yl)-1H-pyrazol-3-yl]-3-fluoro-4-(2-hydroxyethoxy)benzamide] the value was 300 to 1000 nM.
For `CC(C)(O)C1CCN(c2ccc(C(=O)Nc3cc(-c4nc5ccccc5[nH]4)[nH]n3)cn2)CC1` [Compound A-47, N-[5-(1H-benzimidazol-2-yl)-1H-pyrazol-3-yl]-6-[4-(1-hydroxy-1-methyl-ethyl)-1-piperidyl]pyridine-3-carboxamide] the value was less than 100 nM; for `CN(C1CCN(c2ccc(C(=O)Nc3cc(-c4nc5ccccc5[nH]4)[nH]n3)cn2)CC1)S(C)(=O)=O` [Compound A-169, N-[5-(1H-benzimidazol-2-yl)-1H-pyrazol-3-yl]-6-[4-[methyl(methyl-sulfonyl)amino]-1-piperidyl]pyridine-3-carboxamide], 100 to 300 nM.
Compound `CCOC(=O)COc1ccc(C(=O)Nc2cc(-c3nc4ccccc4[nH]3)[nH]n2)cc1Cl` [Compound A-57, ethyl 2-[4-[[5-(1H-benzimidazol-2-yl)-1H-pyrazol-3-yl]carbamoyl]-2-chloro-phenoxy]acetate] came in with an IC50 greater than 1000 nM.
Compound `O=C(Nc1cc(-c2nc3ccccc3[nH]2)[nH]n1)c1ccc(N2CC[C@@H](O)C2)nc1` [Compound A-55, N-[5-(1H-benzimidazol-2-yl)-1H-pyrazol-3-yl]-6-[(3R)-3-hydroxypyrrolidin-1-yl]pyridine-3-carboxamide] returned a half-inhibitory concentration (IC50) of 300 to 1000 nM.
For `O=C(Nc1cc(-c2nc3cc(C(F)(F)F)ccc3[nH]2)[nH]n1)c1ccc(N2CCOCC2)nc1` [Compound A-102, 6-morpholino-N-[5-[5-(trifluoromethyl)-1H-benzimidazol-2-yl]-1H-pyrazol-3-yl]pyridine-3-carboxamide] the value was greater than 1000 nM; for `O=C(O)CCN1CCN(c2ccc(C(=O)Nc3cc(-c4nc5ccccc5[nH]4)[nH]n3)cc2)CC1` [Compound A-197, 3-[4-[4-[[5-(1H-benzimidazol-2-yl)-1H-pyrazol-3-yl]carbamoyl]phenyl]-piperazin-1-yl]propanoic acid hydrochloride], greater than 1000 nM.
Under `COc1cc(F)c2[nH]c(-c3cc(NC(=O)c4ccc(N5CCOC(CO)C5)nc4)n[nH]3)nc2c1` (centres unmarked) [Compound A-239, N-[5-(7-fluoro-5-methoxy-1H-benzimidazol-2-yl)-1H-pyrazol-3-yl]-6-[2-(hydroxymethyl)morpholin-4-yl]pyridine-3-carboxamide] stands greater than 1000 nM; under `Cn1nc(NC(=O)c2ccc(N3CCNC(=O)C3)nc2)cc1-c1nc2ccccc2[nH]1` [Compound A-221, N-[5-(1H-benzimidazol-2-yl)-1-methyl-pyrazol-3-yl]-6-(3-oxopiperazin-1-yl)pyridine-3-carboxamide], 300 to 1000 nM; under `Cn1nc(NC(=O)c2ccc(N3CCOC(CO)C3)nc2)cc1-c1nc2ccccc2[nH]1` (centres unmarked) [Compound A-224, N-[5-(1H-benzimidazol-2-yl)-1-methyl-pyrazol-3-yl]-6-[2-(hydroxy-methyl)morpholin-4-yl]pyridine-3-carboxamide], 100 to 300 nM.
`O=C(Nc1cc(-c2nc3ccccc3[nH]2)[nH]n1)c1ccc(NCCO)c(Cl)c1` [Compound A-78, N-[5-(1H-benzimidazol-2-yl)-1H-pyrazol-3-yl]-3-chloro-4-(2-hydroxy-ethylamino)benzamide] displayed an IC50 of 100 to 300 nM.
Consider `O=C(Nc1cc(-c2nc3ccccc3[nH]2)[nH]n1)c1ccc(N2C[C@H](O)[C@@H](O)C2)nc1` [Compound A-60, N-[5-(1H-benzimidazol-2-yl)-1H-pyrazol-3-yl]-6-[(3S,4S)-3,4-dihydroxy-pyrrolidin-1-yl]pyridine-3-carboxamide], for which the IC50 was greater than 1000 nM.
Compound `O=C(Nc1cc(-c2nc3ccccc3[nH]2)[nH]n1)c1ccc(N2CCC(C(=O)O)CC2)nc1` [Compound A-51, ammonium 1-[5-[[5-(1H-benzimidazol-2-yl)-1H-pyrazol-3-yl]carbamoyl]-2-pyridyl]piperidine-4-carboxylate] returned an IC50 greater than 1000 nM.
For `CN(C)C1CCN(c2ccc(C(=O)Nc3cc(-c4nc5cc(F)ccc5[nH]4)n(C)n3)cn2)CC1` [Compound A-133, 6-[4-(dimethylamino)-1-piperidyl]-N-[5-(5-fluoro-1H-benzimidazol-2-yl)-1-methyl-pyrazol-3-yl]pyridine-3-carboxamide] the value was 100 to 300 nM.
`O=C(Nc1cc(-c2nc3cc(C(F)(F)F)ccc3[nH]2)[nH]n1)c1ccc(OCCO)c(Cl)c1` [Compound A-123, 3-chloro-4-(2-hydroxyethoxy)-N-[5-[5-(trifluoromethyl)-1H-benzimidazol-2-yl]-1H-pyrazol-3-yl]benzamide formic acid] came in with an IC50 of less than 100 nM.
Compound `Cn1nc(NC(=O)c2ccc(N3CCN(C(=O)CO)CC3)nc2)cc1-c1nc2ccccc2[nH]1` [Compound A-269, N-[5-(1H-benzimidazol-2-yl)-1-methyl-pyrazol-3-yl]-6-[4-(2-hydroxyacetyl)piperazin-1-yl]pyridine-3-carboxamide] gave an IC50 of 100 to 300 nM.
Under `Cn1nc(NC(=O)c2ccc(N3CCN4CCCC4C3)nc2)cc1-c1nc2ccccc2[nH]1` (centres unmarked) [Compound A-279] stands less than 100 nM; under `Cn1nc(NC(=O)c2ccc(N3CCOCC3)nc2)cc1-c1nc2cc(F)ccc2[nH]1` [Compound A-148, N-[5-(5-fluoro-1H-benzimidazol-2-yl)-1-methyl-pyrazol-3-yl]-6-morpholino-pyridine-3-carboxamide], 100 to 300 nM.
For `O=C(Nc1cc(-c2nc3ccccc3[nH]2)[nH]n1)c1ccc(N2CC[C@H](O)C2)nc1` [Compound A-54, N-[5-(1H-benzimidazol-2-yl)-1H-pyrazol-3-yl]-6-[(3S)-3-hydroxy-pyrrolidin-1-yl]pyridine-3-carboxamide] the value was 300 to 1000 nM; for `CCOCCNc1ccc(C(=O)Nc2cc(-c3nc4ccccc4[nH]3)[nH]n2)cn1` [Compound A-61, N-[5-(1H-benzimidazol-2-yl)-1H-pyrazol-3-yl]-6-(2-ethoxyethylamino)-pyridine-3-carboxamide], 100 to 300 nM; for `C[C@@H]1COCCN1c1ccc(C(=O)Nc2cc(-c3nc4ccccc4[nH]3)n(C)n2)cn1` [Compound A-229, N-[5-(1H-benzimidazol-2-yl)-1-methyl-pyrazol-3-yl]-6-[(3R)-3-methylmorpholin-4-yl]pyridine-3-carboxamide], 100 to 300 nM.
Under `CC1CN(c2ccc(C(=O)Nc3cc(-c4nc5ccccc5[nH]4)n(C)n3)cn2)CC(CO)O1` (single isomer, unassigned) [Compound A-294, N-[5-(1H-benzimidazol-2-yl)-1-methyl-pyrazol-3-yl]-6-[2-(hydroxymethyl)-6-methyl-morpholin-4-yl]pyridine-3-carboxamide] stands less than 100 nM; under `Cn1nc(NC(=O)c2cnc(N3CCC(N4CCOCC4)CC3)nc2)cc1-c1nc2ccccc2[nH]1` [Compound A-206, N-[5-(1H-benzimidazol-2-yl)-1-methyl-pyrazol-3-yl]-2-(4-morpholino-1-piperidyl)pyrimidine-5-carboxamide], greater than 1000 nM; under `O=C1CN(c2ccc(C(=O)Nc3cc(-c4nc5ccccc5[nH]4)[nH]n3)cn2)CCN1` [Compound A-69, N-[5-(1H-benzimidazol-2-yl)-1H-pyrazol-3-yl]-6-(3-oxopiperazin-1-yl)pyridine-3-carboxamide], 300 to 1000 nM.
As for `Cc1nc(N2CCOCC2)ccc1C(=O)Nc1cc(-c2nc3ccccc3[nH]2)n(C)n1` [Compound A-236], the IC50 fell in the range of 100 to 300 nM.
Under `C[C@@H]1CN(c2ccc(C(=O)Nc3cc(-c4nc5ccccc5[nH]4)n(C)n3)cn2)C[C@H](C)N1CCO` [Compound A-278, N-[5-(1H-benzimidazol-2-yl)-1-methyl-pyrazol-3-yl]-6-[(3R,5S)-4-(2-hydroxyethyl)-3,5-dimethyl-piperazin-1-yl]pyridine-3-carboxamide] stands 100 to 300 nM; under `Cn1nc(NC(=O)c2ccc(N3CC[C@@H](O)C3)nc2)cc1-c1nc2ccccc2[nH]1` [Compound A-225, N-[5-(1H-benzimidazol-2-yl)-1-methyl-pyrazol-3-yl]-6-[(3R)-3-hydroxy-pyrrolidin-1-yl]pyridine-3-carboxamide], 300 to 1000 nM.
Take `O=C(Nc1cc(-c2nc3cc(C(F)(F)F)ccc3[nH]2)[nH]n1)c1ccc(N2CCC(CO)CC2)nc1` [Compound A-101, 6-[4-(hydroxymethyl)-1-piperidyl]-N-[5-[5-(trifluoromethyl)-1H-benzimidazol-2-yl]-1H-pyrazol-3-yl]pyridine-3-carboxamide]: the IC50 was greater than 1000 nM.
